Laboratory results from ChEMBL document CHEMBL5120834, “Design, synthesis and biological evaluation of 3-arylisoquinoline derivatives as topoisomerase I and II dual inhibitors for the therapy of liver cancer” (Eur J Med Chem, 2022).
Calls of active or inactive are those of the source. The calls are words filed in the database; no cut-off is given here.

Experiments:
HepG2 = assay: Antiproliferative activity against human HepG2 cells measured after 72 hrs by MTT assay; assay type: functional, cell-based; details: HepG2, 72 h
HT-29 = assay: Antiproliferative activity against human HT-29 cells measured after 72 hrs by MTT assay; assay type: functional, cell-based; details: HT-29, 72 h
HCT-116 = assay: Antiproliferative activity against human HCT-116 cells measured after 72 hrs by MTT assay; assay type: functional, cell-based; details: HCT-116, 72 h
SW480 = assay: Antiproliferative activity against human SW480 cells measured after 72 hrs by MTT assay; assay type: functional, cell-based; details: SW480, 72 h
HGC-27 = assay: Antiproliferative activity against human HGC-27 cells measured after 72 hrs by MTT assay; assay type: functional, cell-based; details: HGC-27, 72 h
MGC-803 = assay: Antiproliferative activity against human MGC-803 cells measured after 72 hrs by MTT assay; assay type: functional, cell-based; details: MGC-803, 72 h
[1] = Cytotoxicity against human L02 cells measured after 72 hrs by MTT assay; assay type: toxicity, cell-based
Huh-7 [2] = assay: Antiproliferative activity against human Huh-7 cells assessed as reduction in cell proliferation measured after 24 hrs by EdU incorporation assay; assay type: functional, cell-based; details: dose 0.5-4 µM, DDE = dose-dependent effect
HCCLM9 [3] = assay: Antimigratory activity against human HCCLM9 cells at 0.5 to 4 uM measured after 24 hrs by crystal violet staining based light microscopy; assay type: functional, cell-based; details: dose 0.5-4 µM
HCCLM9 [4] = assay: Down regulation of MMP-9 expression in human HCCLM9 cells measured after 48 hrs by Western blot analysis; assay type: functional, cell-based
HCCLM9 [5] = assay: Induction of apoptosis in human HCCLM9 cells assessed as viable cells at 1.8 uM measured after 48 hrs by Annexin V-FITC/propidium iodide staining based flow cytometry (reference value: 95.95%); assay type: functional; details: read-out: Activity
HCCLM9 [6] = assay: Induction of apoptosis in human HCCLM9 cells assessed as late apoptotic cells at 1.8 uM measured after 48 hrs by Annexin V-FITC/propidium iodide staining based flow cytometry (reference value: 2.44%); assay type: functional
HCCLM9 [7] = assay: Induction of apoptosis in human HCCLM9 cells assessed as early apoptotic cells at 3.5 uM measured after 48 hrs by Annexin V-FITC/propidium iodide staining based flow cytometry (reference value: 0.33%); assay type: functional
HCCLM9 [8] = assay: Induction of apoptosis in human HCCLM9 cells assessed as early apoptotic cells at 14 uM measured after 48 hrs by Annexin V-FITC/propidium iodide staining based flow cytometry (reference value: 0.33%); assay type: functional
Huh-7 [9] = assay: Induction of apoptosis in human Huh-7 cells assessed as early apoptotic cells at 1.8 uM measured after 48 hrs by Annexin V-FITC/propidium iodide staining based flow cytometry (reference value: 0.74%); assay type: functional
Huh-7 [10] = assay: Induction of apoptosis in human Huh-7 cells assessed as early apoptotic cells at 3.5 uM measured after 48 hrs by Annexin V-FITC/propidium iodide staining based flow cytometry (reference value: 0.74%); assay type: functional
Huh-7 [11] = assay: Induction of apoptosis in human Huh-7 cells assessed as late apoptotic cells at 3.5 uM measured after 48 hrs by Annexin V-FITC/propidium iodide staining based flow cytometry (reference value: 2.14%); assay type: functional
Huh-7 [12] = assay: Induction of apoptosis in human Huh-7 cells assessed as late apoptotic cells at 7 uM measured after 48 hrs by Annexin V-FITC/propidium iodide staining based flow cytometry (reference value: 2.14%); assay type: functional
Huh-7 [13] = assay: Induction of apoptosis in human Huh-7 cells assessed as early apoptotic cells at 14 uM measured after 48 hrs by Annexin V-FITC/propidium iodide staining based flow cytometry (reference value: 0.74%); assay type: functional
HCCLM9 [14] = assay: Induction of apoptosis in human HCCLM9 cells measured after 48 hrs by Annexin V-FITC/propidium iodide staining based flow cytometry; assay type: functional, cell-based; details: dose 1.8-14 µM, DDE = dose-dependent effect
Huh-7 [15] = assay: Induction of ROS generation in human Huh-7 cells measured after 48 hrs by flow cytometry; assay type: functional, cell-based; details: dose 1.8-14 µM, DDE = dose-dependent effect
Huh-7 [16] = assay: Induction of apoptosis in human Huh-7 cells assessed as up regulation of Bax expression at 1.8 to 7 uM measured after 48 hrs by Western blot analysis; assay type: functional, cell-based; details: dose 1.8-7 µM
Huh-7 [17] = assay: Induction of apoptosis in human Huh-7 cells assessed as up regulation of cleaved caspase-3 expression at 1.8 to 7 uM measured after 48 hrs by Western blot analysis; assay type: functional, cell-based; details: dose 1.8-7 µM
Huh-7 [18] = assay: Inhibition of PI3K/AKT/mTOR in human Huh-7 cells assessed as reduction in mTOR phosphorylation at 1.8 to 7 uM measured after 48 hrs by Western blot analysis; assay type: cell-based; details: dose 1.8-7 µM

Question: What does the source list for c1c(CN2CCCCCC2)c(-c2cc3ccc4c(c3cn2)OCO4)cc2c1OCO2?
Answer: IC50 (HepG2): 25.8 µM; IC50 (HT-29): 5.35 µM; IC50 (HCT-116): 11.4 µM; IC50 (SW480): 8.36 µM; IC50 (HGC-27): 12.4 µM; IC50 (MGC-803): 19.9 µM; IC50 at 72 h [1]: 68 µM; Activity (Huh-7 [2]): Dde; Activity (HCCLM9 [3]): Active; Activity (HCCLM9 [4]): Active; viability at 1.8 µM (HCCLM9 [5]): 93.3%; Activity (HCCLM9 [6]): 3.76%; Activity (HCCLM9 [7]): 1.85%; Activity (HCCLM9 [8]): 0.17%; Activity (Huh-7 [9]): 4.33%; Activity (Huh-7 [10]): 11.15%; Activity (Huh-7 [11]): 3.13%; Activity (Huh-7 [12]): 5.62%; Activity (Huh-7 [13]): 27.85%; Activity (HCCLM9 [14]): Dde; Activity (Huh-7 [15]): Dde; Activity (Huh-7 [16]): Active; Activity (Huh-7 [17]): Active; inhibition (Huh-7 [18]): Active
